Test results: ChEMBL document CHEMBL3046120, “Synthesis and root growth-inhibitory activity of 2- and 3-(haloacetylamino)-3-(2-furyl)propanoic acids” (2003)

Each compound was assayed on Brassica rapa subsp. oleifera (assay: Herbicidal activity against Brassica rapa subsp. oleifera seedling assessed as root growth inhibition at 1 x10 ' -4 M measured after 7 days). Conditions: 168 h, read-out: GI.
Format: functional

Row | SMILES | inhibition of growth at 100 µM
1 | O=C(CCl)NC(Cc1ccco1)C(=O)O (racemic) | 51%
2 | O=C(CF)NC(Cc1ccco1)C(=O)O (racemic) | 90%
3 | CC(=O)NC(Cc1ccco1)C(=O)O (racemic) | 19%
4 | NC(Cc1ccco1)C(=O)O (racemic) | 7%
5 | O=C(O)CC(NC(=O)CCl)c1ccco1 (racemic) | 55%
6 | O=C(O)CC(NC(=O)CF)c1ccco1 (racemic) | 43%
7 | CC(=O)NC(CC(=O)O)c1ccco1 (racemic) | 22%
8 | NC(CC(=O)O)c1ccco1 (racemic) | 16%
9 | O=C(O)COc1ccc(Cl)cc1Cl [2,4-DICHLOROPHENOXYACETIC ACID] | 100%
